Assay results published in patent US5643958A, “Substituted amide derivatives” (Banyu Pharmaceutical Co., Ltd., priority 1994, dated 1997).

Assays:
[1] = target: T1, protein-farnesyl transferase (PFT) (Rattus norvegicus, UniProt Q02293+Q04631); assay: Inhibitory activities against protein-farnesyl transferase (PFT); assay type: biochemical; conditions: PFT derived from rat brain; 37° C.; preincubation 10 minutes, reaction 20 minutes; read-out: 50% inhibitory concentrations against PFT activities, IC50
T1 construct: a soluble fraction of rat's brain was fractionated; from tissue; host or cells: rat brain, soluble fraction; 30-50% ammonium sulfate cut, dialysis, Q-Sepharose column
Experimental: PFT was separated in such a manner that a soluble fraction of rat's brain was fractionated by means of 30%-50% saturated ammonium sulfate, further dialyzed and then subjected to column chromatography by Q-cephalose™ (manufactured by Pharmacia) (Reiss et al, Cell, vol. 62, p. 81-88 (1990)).
Measurement of PFT activities was conducted by using, as a prenyl acceptor, H-ras protein or a substance that biotin was added to N-terminal of a peptide corresponding to a 7 amino acid residue at C terminal of K-rasB protein (biotin-added Lys-Thr-Ser-Cys-Val-Ile-Met) and, as a prenyl doner, [^3 H]-labeled farnesylpyrophosphate (FPP) (Reiss et al, Methods: A Companion to a Methods in Enzymology, vol. 1, No. 3, p. 241-245 (1990)).
The [^3 H]-labeled farnesylpyrophosphate (22.5 Ci/mmol) was purchased from New England Nuclear Co. Non-labeled farnesylpyrophosphate was chemically synthesized from ditriethylammonium phosphate, trans-trans-farnesol and trichloroacetonitrile and purified by XAD-2-resin column and diethylaminoethylcellulose (Cornforth et al, Methods in Enzymology, vol. 15, p. 385-390 (1969)).
H-ras protein was expressed in Escherichia coli and purified (Gibbs et al, Proc. Natl. Acad. Sci., vol. 81, p. 5704-5708 (1984)).
The PFT reaction solution containing H-ras protein as the prenyl acceptor was 25 μl, and its composition was 50 mM Hepes pH7.5/50 μM ZnCl2 /5 mM MGCl2 /20 mM KCl/5mM DTT/0.6 μM all trans [^3 H]-farnesylpyrophosphate/25 μM H-ras protein/PFT derived from rat brain (Q-sephalose fraction). The reaction temperature was 37° C., the preincubation time was 10 minutes, and the reaction time was 20 minutes. […]
The enzymatic reaction product containing H-ras protein as the prenyl acceptor, was analyzed by SDS-PAGE (sodium dodecylsulfate/polyacrylamide gel electrophoresis). […]
The measurement of PFT activities using H-ras protein as the prenyl receptor, was also analyzed by a rapid separate method. […]

[2] = tested on: farnesyl-modification of Ras protein; assay: Inhibitory activities against farnesyl-modification of Ras protein in NIH3T3 cells transformed by activated ras gene; assay type: cell-based; conditions: Mus musculus, 24 hours, read-out: 50% inhibitory concentrations against farnesyl-modification of Ras protein, IC50
Experimental: Using the compounds of the present invention, inhibitory activities against farnesyl-modification of Ras protein in NIH3T3 cells transformed by activated ras gene, were measured.
The NIH3T3 cells transformed by activated ras gene, were seeded on a culture plate and cultured for 3 days. Then, a compound of the preset invention in a predetermined concentration was added to the culture. In accordance with the method disclosed in J. Biol. Chem., vol. 268, p. 18415 (1993), the cells were cultured for 24 hours and then taken off from the plate, and the cells were dissolved. After centrifugal separation for 5 minutes under 12000 g, the supernatant was used as a cell extract. The cell extract was subjected to SDS polyacrylamide gel electrophoresis to separate farnesyl-modified Ras protein and non-farnesyl-modified Ras protein. The protein on the gel was transferred onto a nitrocellulose membrane, and an anti-Ras protein antibody was reacted as a probe (primary antibody reaction). An anti-primary antibody, a peroxidase inclusion (secondary antibody), was reacted, and then Ras protein was detected by a chemical fluorescence enhancing kit. The proportion of non-farnesyl-modified Ras protein was quantified by a densitometer and taken as the inhibitory activity.
The 50% inhibitory concentrations (IC50 values) of the compounds of the present invention against farnesyl-modification of Ras protein are shown in Table 2.

NIH/ras cells = assay: Antitumor effects to transformed cells (NIH/ras) using active type human Ha-ras, cells transplanted subcutaneously to a nude mouse; assay type: in vivo; conditions: once a day day 1 to 6; for Growth inhibition: day 7; for Weight of tumor, Average (g) ± standard deviation: tumor weighed day 7, control 0.22 ± 0.07
Excerpt: (Antitumor effects to transformed cells (NIH/ras) using active type human Ha-ras)
^1) Tumor inoculation: 10^6 cells were transplanted subcutaneousl
^2) Dose: Each dose was intraperitonealy administered once a day from
the first day to the sixth day after the inoculation of the cells.
^3) Weight of tumor: On the seventh day after inoculation of the
cells, the tumors were weighed.
^4) Growth inhibition: (1(average weight of tumor of the treated
group/average weight of tumor of the control group)) × 100
*and **: Statistical analysis by ttest are 5% and 1%, respectively.

[3] = 10 mg/kg/injection intraperitoneal

Structure (SMILES) | IC50 [1] [nM] | IC50 [2] [nM] | further results
COC(=O)c1ccc([C@H](C/C=C/c2nc3ccccc3o2)[C@H](C)N(Cc2ccc3sccc3c2)C(=O)C[C@@H](CC(=O)O)C(=O)O)cc1 (relative stereo) [Example 34, (2R^*)-2-[N-(5-benzo[b]thienylmethyl)-N-{(1RS,2RS,4E)-5-(2-benzoxazolyl)-2-(4-methoxycarbonylphenyl)-1-methyl-4-pentenyl}carbamoylmethyl]succinic Acid] | 0.53 | – | –
CC(C(CC=Cc1nc2ccccc2o1)c1ccc2c(c1)OCO2)N(Cc1ccc2ccccc2c1)C(=O)C(O)CCC(=O)O (stereo not drawn) [Example 59, Sodium 4-[N-{(1RS,2RS,4E)-5-(2-benzoxazolyl)-1-methyl-2-(3,4-methylenedioxyphenyl)-4-pentenyl}-N-(2-naphthylmethyl)]carbamoyl-4-hydroxybutanoate] | 0.46 | – | –
C[C@H]([C@H](C/C=C/c1nc2ccccc2o1)c1ccc2c(c1)OCO2)N(Cc1ccc2ccccc2c1)C(=O)C(O)=C(CC(=O)O)C(=O)OC(C)(C)C [Example 69, 4-[N-{(1R,2R,4E)-5-(2-benzoxazolyl)-1-methyl-2-(3,4-methylenedioxyphenyl)-4-pentenyl}-N-(2-naphthylmethyl)carbamoyl]-3-tert-butoxycarbonyl-4-hydroxy-3-butenoic Acid] | – | 4500 | Growth inhibition (NIH/ras cells; [3]): 23%; Weight of tumor, Average (g) ± standard deviation (NIH/ras cells; [3]): 0.17 ± 0.09 g; Growth inhibition (NIH/ras cells; 30 mg/kg/injection intraperitoneal): 59%; Weight of tumor, Average (g) ± standard deviation (NIH/ras cells; 30 mg/kg/injection intraperitoneal, ** t-test 1%): 0.09 ± 0.05 g

The next lines start with results.

IC50 [1] [nM] | IC50 [2] [nM] | Structure (SMILES) | further results
0.15 | 7700 | C[C@H]([C@H](C/C=C/c1nc2ccccc2o1)c1ccc2c(c1)OCO2)N(Cc1ccc2ccccc2c1)C(=O)CC(C(=O)O)C(CC(=O)O)C(=O)O (mixture of isomers) [Example 45, 4-[N-{(1RS,2RS,4E)-5-(2-benzoxazolyl)-1-methyl-2-(3,4-methylenedioxyphenyl)-4-pentenyl}-N-(2-naphthylmethyl)carbamoyl]-1,2,3-butanetricarboxylic Acid] | –
– | 18000 | C[C@H]([C@H](C/C=C/c1nc2ccccc2o1)c1ccc2c(c1)OCO2)N(Cc1ccc2ccccc2c1)C(=O)CC(CC(=O)O)(C(=O)O)C(=O)O (racemic) [Example 46, 3-[N-{(1RS,2RS,4E)-5-(2-benzoxazolyl)-1-methyl-2-(3,4-methylenedioxyphenyl)-4-pentenyl}-N-(2-naphthylmethyl)-carbamoyl]-1,2,2-propanetricarboxylic Acid] | –
